This is an account of results in patent US7815803B2, “Preparation of samples for LC-MS/MS using magnetic particles” (Roche Diagnostics Operations, Inc., priority 2007, dated 2010).

The conditions of data set [1]: in vivo; cited from earlier work.
A short description of data set [2]: Pooled serum from itraconazole treated patients, LC-MS/MS validation. The data set is classed as in vivo, human. The following applies: n=9. As for the experimental part:
A validation protocol was performed in three independent analytical series. In each series a five-point calibration was performed using a commercially available calibration material for itraconazole measurement (2,000 μg/l, 1,000 μg/l, 500 μg/l, 250 μg/l, and 125 μg/l; Recipe, Munich, Germany). Aliquots of pooled serum from itraconazole treated patients were analyzed in triplicate in each series to calculate a total coefficient of variation (n=9). Commercially available quality control materials (ClinCheck, Recipe, Munich, Germany) in two concentration ranges (target concentrations 150 μg/l, and 2,900 μg/l) were analyzed in the three series.
Linear calibration lines (r>0.99) were obtained in all series. For the pooled serum a total coefficient of variation of 3.4% was observed (mean concentration 380 μg/l); all quality control samples were found within the predefined accepted ranges (±10% of the target concentrations).

For data set [3] the following is noted: in vitro; cited from earlier work.

As to `COc1c(C)c2c(c(O)c1C/C=C(\C)CCC(=O)OCCN1CCOCC1)C(=O)OC2` [Mycophenolate mofetil, mycophenolate mofetil], the therapeutic trough concentration in data set [1] is 1000 to 3500 µg/L.
For the molecule `CCC(C)n1ncn(-c2ccc(N3CCN(c4ccc(OCC5COC(Cn6cncn6)(c6ccc(Cl)cc6Cl)O5)cc4)CC3)cc2)c1=O` (centres unmarked) [itraconazole], the “mean concentration in pooled serum” value in data set [2] amounted to 380 ng/mL.
In the case of `CO[C@H]1C[C@@H]2CC[C@@H](C)[C@@](O)(O2)C(=O)C(=O)N2CCCC[C@H]2C(=O)O[C@H]([C@H](C)C[C@@H]2CC[C@@H](O)[C@H](OC)C2)CC(=O)[C@H](C)/C=C(\C)[C@@H](O)[C@@H](OC)C(=O)[C@H](C)C[C@H](C)/C=C/C=C/C=C/1C` [Sirolimus, sirolimus], in data set [1], the therapeutic trough concentration is 5 to 15 µg/L.
`C=CC[C@@H]1/C=C(\C)C[C@H](C)C[C@H](OC)[C@H]2O[C@@](O)(C(=O)C(=O)N3CCCC[C@H]3C(=O)O[C@H](/C(C)=C/[C@@H]3CC[C@@H](O)[C@H](OC)C3)[C@H](C)[C@@H](O)CC1=O)[C@H](C)C[C@@H]2OC` [Tacrolimus, tacrolimus]: the therapeutic trough concentration in data set [1] is 5 to 20 µg/L. Besides, in data set [3], the “potency relative to cyclosporin” value is given as “up to 100 times”.
